Some results are limits rather than exact numbers.

The source of these data is patent US8551984B2, “Aminopyrimidines as SYK inhibitors” (Merck Sharp & Dohme Corp., priority 2009, dated 2013).

The target of one experiment is rhSYK (Homo sapiens, UniProt P43405). The note with it: read-out: rhSYK Activity; Table 117.
On to `Cc1cc(Nc2nccc(C(F)(F)F)n2)cc(-c2cnc(C3(O)CCC(CC(N)=O)CC3)s2)c1` (stereo not shown) [Example 117-9], for which the IC50 was under 0.1 µM.

As to `Cc1cc(Nc2nccc(C(F)(F)F)n2)cc(-c2cnc(C3(O)CCC(CC(N)=O)CC3)s2)c1` (stereo not shown) [Example 117-10], the IC50 is under 0.1 µM.

Staying with this experiment, now noted: read-out: rhSYK Activity; Table 119; two symbols in a cell = one per listed form.
As to `Cc1cc(Nc2nccc(C(C)C)n2)cc(-c2cnc(C3(O)CCC(C(N)=O)C(C)C3)s2)c1` (stereo not shown) [Example 119-11], the IC50 was under 0.1 µM.

As for `COc1ccnc(Nc2cc(C)cc(-c3cnc(C4(O)CCC(C(N)=O)C(C)(C)C4)s3)c2)n1` (stereo not shown) [Example 119-13], the IC50 was under 0.1 µM.

Regarding `Cc1cc(Nc2nccc(C(C)O)n2)cc(-c2cnc(C3(O)CCC(C(N)=O)C(C)(C)C3)s2)c1` (stereo not shown) [Example 119-121], the IC50 was under 0.1 µM.

In the case of `Cc1cc(Nc2nccc(C(C)F)n2)cc(-c2cnc(C3(O)CCC(C(N)=O)C(C)(C)C3)s2)c1` (stereo not shown) [Example 119-123], the IC50 was under 0.1 µM.

On to `Cc1cc(Nc2nccc(OC(C)C)n2)cc(-c2cnc(C3(O)CCC(C(N)=O)C(C)(C)C3)s2)c1` (stereo not shown) [Example 119-126], for which the IC50 was under 0.1 µM.

Regarding `Cc1cc(Nc2nccc(C(F)(F)F)n2)cc(-c2cnc(C3(O)CCC(C(N)=O)C(C)(C)C3)s2)c1` (stereo not shown) [Example 119-132], the IC50 is under 0.1 µM.

The same experiment, now with this note: read-out: rhSYK Activity; class symbol; where two forms are listed, one symbol per form.
Consider `O=C(c1ccoc1)c1ncc(-c2cccc(Nc3nccc(C(F)(F)F)n3)c2)s1` [Example 4B-4], for which the IC50 was 0.1 to 1 µM.

For the compound `O=C(c1ccon1)c1ncc(-c2cccc(Nc3nccc(C(F)(F)F)n3)c2)s1` [Example 4B-5], the IC50 is under 0.1 µM.

With `N#CCCC1CCCCC1(O)c1ncc(-c2cccc(Nc3nccc(C(F)(F)F)n3)c2)s1` (stereo not shown) [Example 4B-6], the IC50 is 0.1 to 1 µM.

For `OC1(c2ncc(-c3cccc(Nc4nccc(C(F)(F)F)n4)c3)s2)CC2COCC(C1)N2Cc1ccccc1` (stereo not shown) [Example 4B-9], the IC50 fell in the range of 1 to 10 µM.

Turning to `Cc1cc(Nc2nccc(C)n2)cc(-c2cnc(C3(O)C4CC5CC3CN(C5)C4)s2)c1` (stereo not shown) [Example 4B-17], the IC50 lay in the range of 0.1 to 1 µM.

For the compound `Cc1cc(Nc2nccc(C(F)(F)F)n2)cc(-c2cnc(C3(O)CCCC4(OCCO4)C3(C)C)s2)c1` (stereo not shown) [Example 4B-28], the IC50 lay in the range of 0.1 to 1 µM.

For `Cc1cc(Nc2nccc(C(F)(F)F)n2)cc(-c2cnc(C3(O)CC4C(Br)CC3C4C(=O)O)s2)c1` (stereo not shown) [Example 4B-53], the IC50 is under 0.1 µM.

Turning to `Cc1cc(Nc2nccc(C(F)(F)F)n2)cc(-c2cnc(C3(O)CC4C(Br)CC3C4C(=O)O)s2)c1` (stereo not shown) [Example 4B-54], the IC50 is under 0.1 µM.

For `Cc1cc(Nc2nccc(C(F)(F)F)n2)cc(-c2cnc(C(=O)CCC#N)s2)c1` [Example 4B-59], the IC50 is under 0.1 µM.

As for `Cc1cc(Nc2nccc(C(F)(F)F)n2)cc(-c2cnc(C(=O)CCC(=O)CCO)s2)c1` [Example 4B-62], the IC50 fell in the range of 0.1 to 1 µM.

`Cc1cc(Nc2nccc(C(F)(F)F)n2)cc(-c2cnc(C3(O)CCC(CN)CC3)s2)c1` (stereo not shown) [Example 4C-4]: the IC50 is under 0.1 µM.

As for `Cc1cc(Nc2nccc(C(F)(F)F)n2)cc(-c2cnc([C@]3(O)CC[C@H](CO)CC3)s2)c1` [Example 4C-6], the IC50 was under 0.1 µM.

Consider `Cc1cc(Nc2nccc(C(F)(F)F)n2)cc(-c2cnc(C3(O)CCC(CO)CC3)s2)c1` (stereo not shown) [Example 4C-7], for which the IC50 is under 0.1 µM.

Take `Cc1cc(Nc2nccc(C(F)(F)F)n2)cc(-c2cnc([C@]3(O)CC[C@@H](CO)CC3)s2)c1` [Example 4C-8]: the IC50 was under 0.1 µM.

Consider `Cc1cc(Nc2nccc(C(F)(F)F)n2)cc(-c2cnc([C@]3(O)CC[C@@H](CC(=O)O)CC3)s2)c1` [Example 4C-14], for which the IC50 is under 0.1 µM.

Regarding `Cc1cc(Nc2nccc(C(F)(F)F)n2)cc(-c2cnc([C@]3(O)CC[C@H](CC(=O)O)CC3)s2)c1` [Example 4C-15], the IC50 was under 0.1 µM.

In the case of `CCOC(=O)C1CCCC(O)(c2ncc(-c3cc(C)cc(Nc4nccc(C(F)(F)F)n4)c3)s2)C1` (stereo not shown) [Example 4C-21], the IC50 was 0.1 to 1 µM.

For `COC(=O)C1CCC(O)(c2ncc(-c3cc(C)cc(Nc4nccc(C(F)(F)F)n4)c3)s2)CC1C(C)C` (stereo not shown) [Example 4C-25], the IC50 was in the range of 0.1 to 1 µM.

Consider `Cc1cc(Nc2nccc(C(F)(F)F)n2)cc(-c2cnc(C3(O)CCC(CC(C)(C)C(=O)O)CC3)s2)c1` (stereo not shown) [Example 4C-26], for which the IC50 was under 0.1 µM.

For `Cc1cc(Nc2nccc(C(F)(F)F)n2)cc(-c2cnc([C@]3(O)CC[C@@H](NC(=O)Cn4ccnc4)CC3)s2)c1` [Example 4C-29], the IC50 was under 0.1 µM.

In the case of `Cc1cc(Nc2nccc(C(F)(F)F)n2)cc(-c2cnc(C3(O)CCC(NC(=O)C4CCC(=O)O4)CC3)s2)c1` (stereo not shown) [Example 4C-30], the IC50 was under 0.1 µM.

Take `Cc1cc(Nc2nccc(C(F)(F)F)n2)cc(-c2cnc(C3(O)CCC(NC(=O)C4CCC(=O)O4)CC3)s2)c1` (stereo not shown) [Example 4C-31]: the IC50 was under 0.1 µM.

Regarding `Cc1cc(Nc2nccc(C(F)(F)F)n2)cc(-c2cnc([C@]3(O)CC[C@@H](NC(=O)Cc4ccccn4)CC3)s2)c1` [Example 4C-32], the IC50 was under 0.1 µM.

Consider `OC(c1ncc(-c2cccc(Nc3nccc(C(F)(F)F)n3)c2)s1)C(F)(F)F` (stereo not shown) [Example 6-2], for which the IC50 was under 0.1 µM.

As for `CCOC(=O)C(O)(c1ncc(-c2cc(C)cc(Nc3nccc(C(F)(F)F)n3)c2)s1)C(F)(F)F` (stereo not shown) [Example 6-6], the IC50 was under 0.1 µM.

Take `Cc1cc(Nc2nccc(C(F)(F)F)n2)cc(-c2cnc(C(O)(CO)C(F)(F)F)s2)c1` (stereo not shown) [Example 6-7]: the IC50 is under 0.1 µM.

Take `Cc1cc(Nc2nccc(C(F)(F)F)n2)cc(-c2cnc(C(C)(O)c3ccc(C(C)O)cc3)s2)c1` (stereo not shown) [Example 8B-4]: the IC50 is under 0.1 µM.

Staying with this experiment, now noted: read-out: rhSYK activity; class symbol given.
Turning to `Cc1cc(Nc2nccc(C(F)(F)F)n2)cc(-c2cnc([C@]3(O)CC[C@@H](O)CC3)s2)c1` [Example 8(1), cis-1-[5-(3-methyl-5-{[4-(trifluoromethyl)pyrimidin-2-yl]amino}phenyl)-1,3-thiazol-2-yl]-cyclohexane-1,4-diol], the IC50 is under 0.1 µM.

With `Cc1cc(Nc2nccc(C(F)(F)F)n2)cc(-c2cnc([C@]3(O)CC[C@](C)(O)CC3)s2)c1` [Example 9(1), trans-1-methyl-4-[5-(3-methyl-5-{[4-(trifluoromethyl)pyrimidin-2-yl]amino}phenyl)-1,3-thiazol-2-yl]cyclohexane-1,4-diol], the IC50 was under 0.1 µM.

Regarding `Cc1cc(Nc2nccc(C(F)(F)F)n2)cc(-c2cnc(C3(O)CCN(C(=O)OC(C)(C)C)CC3)s2)c1` [Example 45, tert-butyl-4-hydroxy-4-[5-(3-methyl-5-{[4-(trifluoromethyl)pyrimidin-2-yl]amino}phenyl)-1,3-thiazol-2-yl]piperidine-1-carboxylate], the IC50 lay within 0.1 to 1 µM.

As for `Cc1cc(Nc2nccc(C(F)(F)F)n2)cc(-c2cnc(C3(NS(=O)(=O)C(C)(C)C)COC3)s2)c1` [Example 61, 2-methyl-N-{3-[5-(3-methyl-5-{[4-(trifluoromethyl)pyrimidin-2-yl]amino}phenyl)-1,3-thiazol-2-yl]oxetan-3-yl}propane-2-sulfonamide], the IC50 was under 0.1 µM.

As to `CC(=O)NC1(c2ncc(-c3cc(C)cc(Nc4nccc(C(F)(F)F)n4)c3)s2)CCC1` [Example 66, N-{1-[5-(3-methyl-5-{[4-(trifluoromethyl)pyrimidin-2-yl]amino}phenyl)-1,3-thiazol-2-yl]cyclobutyl}acetamide], the IC50 was under 0.1 µM.

The next experiment has as its target recombinant human SYK (GST-hSYK fusion protein) (Homo sapiens, UniProt P43405). The conditions noted are these: read-out: rhSYK Activity (IC50); recombinant human GST-SYK 5 pM, ATP 25 μM, biotinylated substrate peptide 250 nM, HTRF, 10-dose titration.
Source text: Homogeneous Time-Resolved Fluorescence (HTRF) Assay for the Recombinant Human SYK Enzyme:
For the compound `Cc1cc(Nc2nccc(C(F)(F)F)n2)cc(-c2cnc([C@]3(O)CCC(=O)NC[C@H]3O)s2)c1` (relative stereo) [161(A), [cis]5,6-dihydroxy-5-[5-(3-methyl-5-{[4-(trifluoromethyl)pyrimidin-2-yl]amino}phenyl)-1,3-thiazol-2-yl]azepan-2-one], the IC50 was under 0.1 µM.

As for `Cc1cc(Nc2nccc(C(F)(F)F)n2)cc(-c2cnc(C3CCC(C(N)=O)C(C)(C)C3)s2)c1` (single isomer, unassigned) [154(b), 2,2-Dim ethyl-4-[5-(3-methyl-5-{[4-(trifluoromethyl)pyrimidin-2-yl]amino}phenyl)-1,3-thiazol-2-yl]cyclohexanecarboxamide], the IC50 is under 0.1 µM.

Regarding `Cc1cc(Nc2nccc(C(F)(F)F)n2)cc(-c2cnc(C3CCC(C(N)=O)C(C)(C)C3)s2)c1` (single isomer, unassigned) [154(c), 2,2-Dim ethyl-4-[5-(3-methyl-5-{[4-(trifluoromethyl)pyrimidin-2-yl]amino}phenyl)-1,3-thiazol-2-yl]cyclohexanecarboxamide], the IC50 was under 0.1 µM.

Consider `Cc1cc(Nc2nccc(C(F)(F)F)n2)cc(-c2cnc(C3CCC(C(N)=O)C(C)(C)C3)s2)c1` (single isomer, unassigned) [154(d), 2,2-Dim ethyl-4-[5-(3-methyl-5-{[4-(trifluoromethyl)pyrimidin-2-yl]amino}phenyl)-1,3-thiazol-2-yl]cyclohexanecarboxamide], for which the IC50 was under 0.1 µM.

For the compound `Cc1cc(Nc2nccc(C(F)(F)F)n2)cc(-c2cnc(C3(O)CCNC(=O)CC3O)s2)c1` (single isomer, unassigned) [161(D), 4,5-dihydroxy-5-[5-(3-methyl-5-{[4-(trifluoromethyl)pyrimidin-2-yl]amino}phenyl)-1,3-thiazol-2-yl]azepan-2-one], the IC50 was under 0.1 µM.

Staying with this experiment, now noted: read-out: rhSYK Activity; Table 10, Formula A.
For the compound `Cc1cc(Nc2nccc(C(C)C)n2)cc(-c2cnc(C3(O)CCNC(=O)CC3)s2)c1` (single isomer, unassigned) [Example 10A-3], the IC50 was under 0.1 µM.

The experiment is the same for the next values; noted with them: read-out: rhSYK Activity; Table 33-A.
As for `Cc1cc(Nc2ncc(Cl)cn2)cc(-c2cnc(C3(O)CCC(C(=O)O)C(C)(C)C3)s2)c1` (single isomer, unassigned) [Example 33A-44], the IC50 was under 0.1 µM.

Regarding `COC(=O)C1CCC(O)(c2ncc(-c3cc(CO)cc(Nc4nccc(C(F)(F)F)n4)c3)s2)CC1(C)C` (single isomer, unassigned) [Example 33A-52], the IC50 is under 0.1 µM.

The same experiment, now with this note: read-out: rhSYK Activity; Table 45.
`Cc1cc(Nc2nccc(C(F)(F)F)n2)cc(-c2cnc(C3(O)CCCN(C(=O)OC(C)(C)C)CC3)s2)c1` (single isomer, unassigned) [45-2]: the IC50 lay in the range of 0.1 to 1 µM.
